Test results: PMC6270994, “The Hydractinia echinata Test-System. III: Structure-Toxicity Relationship Study of Some Azo-, Azo-Anilide, and Diazonium Salt Derivatives” (Molecules, 2014)
Structures can show the parent of a compound that is named as a salt.

Tested on: Hydractinia echinata
Assay: Hydractinia echinata test system (HeTS): reduction of Cs+-induced metamorphosis of larvae
Type: in vivo
Conditions: Hydractinia echinata; MRC50 in mol/L = concentration for 50% decrease of metamorphosis vs control; larvae exposed 3 h with Cs+, read after 24 h; read-out: M: experimental Mlog(1/MRC50) (converted)
Protocol: The average (C) concentrations of these values were calculated too. The MRC50 value calculations (Chicu et al.) result from the graphical representation of the metamorphosis variation, M (%), (Y axis) function of the xenobiotic’s concentration (mol/L) (X axis), where the metamorphosis decreases with the rise of the xenobiotic’s concentration. Thus, the MRC50 value represents the xenobiotic’s concentration (mol/L) necessary for a 50% decrease of metamorphosis, with respect to control.
For each concentration of substance experiments were performed in triplicate and were repeated at least twice.
Colonies of H. echinata (Biologische Anstalt, Helgoland, Germany) were used to obtain eggs and larvae. The culture medium was artificial seawater (980 mosmol, pH 8.2, 18 °C). In laboratory an artificial metamorphosis can be synchronically started by the introduction of Cs^+ ions or by using seawater without Mg^2+ ions; it then lasts only 24 h. Under the action of external stimulus of Cs^+ ions or Cs^+ ions together with the tested compounds, one part of larvae further lives as such and another one is metamorphosized to the polyp form. The evaluation of the influence of the tested substance is very clear this way, the proposed method being based on this aspect.
H. echinata larvae were exposed to seawater containing Cs^+ and simultaneously one of the test substances for 3 h. The percentage of animals that underwent metamorphosis (development into polyps) was determined after 24 h. […] We chose a concentration of inducers which caused about […] to three quarters of the larvae to metamorphose in order to have conditions which are highly sensitive against an inhibitory influence. […] This concentration was termed MRC50 (for Metamorphosis Reduction Concentration) and is similar to the effective EC50 concentration that gives half maximal effective response.

Molecule	EC50
O=S(=O)(O)c1cc(S(=O)(=O)O)c2c(/N=N/c3ccccc3)c(O)ccc2c1 [Compound 39, Acid Orange 10 (Orange G)]	457 µM
CN(C)c1ccc(/N=N/c2ccccc2C(=O)O)cc1 [Compound 3, Methyl Red]	209 µM
Nc1c(N=Nc2ccc(NC(=O)c3ccc(N=Nc4ccc(O)c(C(=O)Nc5ccccc5)c4)cc3)cc2)cc(S(=O)(=O)O)c2ccccc12 [Compound 120, 4-Amino-3-{2-[4-(4-{2-[4-hydroxy-3-(phenyl-carbamoyl)phenyl]diazen-1-yl}benzamido)phenyl]-diazen-1-yl}naphthalene-1-sulfonic acid]	25.1 µM
O=C(O)c1ccc(N=Nc2ccc(O)cc2)cc1 [Compound 7, 4-[2-(4-Hydroxyphenyl)diazen-1-yl]benzoic acid]	479 µM
Nc1c(N=Nc2ccc(NC(=O)c3ccc(N=Nc4cc(S(=O)(=O)O)c5ccccc5c4N)cc3)cc2)cc(S(=O)(=O)O)c2ccccc12 [Compound 109, 4-Amino-3-[2-(4-{4-[2-(1-amino-4-sulfonaphthalen-2-yl)-diazen-1-yl]-benzamido}phenyl)-diazen-1-yl]-naphthalene-1-sulfonic acid]	166 µM
O=C(O)c1ccc(N=Nc2c(O)c(C(=O)O)cc3ccccc23)cc1 [Compound 25, 4-[2-(4-Carboxyphenyl)diazen-1-yl]-3-hydroxynaphthalene-2-carboxylic acid]	355 µM
Nc1cc(S(=O)(=O)O)cc2cc(S(=O)(=O)O)c(N=Nc3ccc(NC(=O)c4ccc(N=Nc5ccc(O)c(C(=O)Nc6ccccc6)c5)cc4)cc3)c(O)c12 [Compound 122, 5-Amino-4-hydroxy-3-{2-[4-(4-{2-[4-hydroxy-3-(phenyl-carbamoyl)phenyl]-diazen-1-yl}-benzamido)phenyl]-diazen-1-yl}-naphthalene-2,7-disulfonic acid]	31.6 µM
O=C(O)c1ccc(/N=N/c2ccc(O)cc2O)cc1 [Compound 8, 4-[(E)-2-(2,4-dihydroxy-phenyl)diazen-1-yl]benzoic acid]	490 µM
O=C(Nc1ccc(N=Nc2c(O)ccc3ccccc23)cc1)c1ccc(N=Nc2ccc(O)c(C(=O)Nc3ccccc3)c2)cc1 [Compound 128, 2-Hydroxy-5-{2-[4-({4-[2-(2-hydroxynaphthalen-1-yl)diazen-1-yl]-phenyl}carbamoyl)-phenyl]diazen-1-yl}-N-phenylbenzamide]	53.7 µM
O=S(=O)(O)c1ccc(O)c(/N=N/c2ccc(O)cc2O)c1 [Compound 21, 3-[(E)-2-(2,4-dihydroxyphenyl)-diazen-1-yl]-4-hydroxybenzene-1-sulfonic acid]	53.7 µM
O=C(O)c1ccc(N=Nc2c(O)ccc3ccccc23)cc1 [Compound 23, 4-[2-(2-Hydroxynaphthalen-1-yl)diazen-1-yl]benzoic acid]	245 µM
O=C(Nc1ccc(N=Nc2c(S(=O)(=O)O)cc3cc(NC(=O)c4ccccc4)ccc3c2O)cc1)c1ccc(N=Nc2ccc(O)c(C(=O)O)c2)cc1 [Compound 119, 5-{2-[4-({4-[2-(6-Benzamido-1-hydroxy-3-sulfonaphthalen-2-yl)diazen-1-yl]-phenyl}carbamoyl)phenyl]diazen-1-yl}-2-hydroxybenzoic acid]	22.4 µM
O=C(Nc1ccc(N=Nc2ccc(O)c(C(=O)O)c2)cc1)c1ccc(N=Nc2ccc(O)c(C(=O)O)c2)cc1 [Compound 106, 5-[2-(4-{4-[2-(3-Carboxy-4-hydroxyphenyl)diazen-1-yl]benzamido}-phenyl)diazen-1-yl]-2-hydroxybenzoic acid]	363 µM
Cc1cc(-c2ccc(/N=N/c3c(S(=O)(=O)O)cc4cc(S(=O)(=O)O)cc(N)c4c3O)c(C)c2)ccc1/N=N/c1c(S(=O)(=O)O)cc2cc(S(=O)(=O)O)cc(N)c2c1O [Compound 90, Trypanblue (Direct Blue 14)]	81.3 µM
O=C(Nc1ccc(/N=N/c2ccc(O)c(C(=O)O)c2)cc1)c1ccc(/N=N/c2cc(/N=N/c3cc(S(=O)(=O)O)ccc3O)c(O)cc2O)cc1 [Compound 105, 5-[(E)-2-(4-{4-[(E)-2-{2,4-dihydroxy-5-[(E)-2-(2-hydroxy-5-sulfo-phenyl)diazen-1-yl]-phenyl}diazen-1-yl]-benzamido}phenyl)-diazen-1-yl]-2-hydroxybenzoic acid]	229 µM
O=C(O)c1ccc(N=Nc2ccc(O)c(C(=O)O)c2)cc1 [Compound 9, 5-[2-(4-Carboxyphenyl)diazen-1-yl]-2-hydroxybenzoic acid]	447 µM
Nc1c(N=Nc2ccc(C(=O)O)cc2)ccc2ccccc12 [Compound 26, 4-[2-(1-Aminonaphthalen-2-yl)diazen-1-yl]benzoic acid]	18.6 µM
O=C(Nc1ccc(N=Nc2c(O)c(S(=O)(=O)O)cc3cc(S(=O)(=O)O)ccc23)cc1)c1ccc(N=Nc2c(O)c(S(=O)(=O)O)cc3cc(S(=O)(=O)O)ccc23)cc1 [Compound 110, 3-Hydroxy-4-[2-(4-{4-[2-(2-hydroxy-3,6-disulfonaphthalen-1-yl)diazen-1-yl]-benzamido}phenyl)-diazen-1-yl]-naphthalene-2,7-disulfonic acid]	195 µM

Same assay, conditions: Hydractinia echinata; parent dye, Table 2; read-out: F(1+2+...)e experimental toxicity log(1/MRC50) (converted)

Molecule	EC50
O=C(O)c1ccc(N=Nc2ccc(O)cc2)cc1 [Compound 7, 4-[2-(4-Hydroxyphenyl)diazen-1-yl]benzoic acid]	479 µM
O=C(O)c1ccc(/N=N/c2ccc(O)cc2O)cc1 [Compound 8, 4-[(E)-2-(2,4-dihydroxy-phenyl)diazen-1-yl]benzoic acid]	490 µM
O=C(Nc1ccc(N=Nc2ccc(O)c(C(=O)O)c2)cc1)c1ccc(N=Nc2ccc(O)c(C(=O)O)c2)cc1 [Compound 106, 5-[2-(4-{4-[2-(3-Carboxy-4-hydroxyphenyl)diazen-1-yl]benzamido}-phenyl)diazen-1-yl]-2-hydroxybenzoic acid]	363 µM
O=C(O)c1ccc(N=Nc2ccc(O)c(C(=O)O)c2)cc1 [Compound 9, 5-[2-(4-Carboxyphenyl)diazen-1-yl]-2-hydroxybenzoic acid]	447 µM

Same assay, conditions: Hydractinia echinata; product of enzymatic reduction/hydrolysis of the dye; read-out: F(1), F(2),... individual log(1/MRC50) toxicity value (converted)

Molecule	EC50
Nc1ccc(O)cc1O [2,4-DHA, 2,4-dihydroxyaniline]	0.55 µM

Same assay, conditions: MRC50 in mol/L = concentration for 50% decrease of metamorphosis vs control; larvae exposed 3 h with Cs+, read after 24 h

Molecule	M: experimental Mlog(1/MRC50)
Fast Red B Salt [Compound 137]	5.25
Cc1ccccc1/N=N/c1ccc(/N=N/c2c(O)ccc3ccccc23)c(C)c1 [Compound 63, Sudan IV (Scarlet Red)]	3.05
Cc1ccc(N=Nc2c(O)c(S(=O)(=O)[O-])cc3cc(S(=O)(=O)[O-])ccc23)c(C)c1.[Na+].[Na+] [Compound 38, Acid Red 26 (Ponceau Xilidine)]	4.06
O=C(Nc1ccc2c(O)c(N=Nc3ccc(N=Nc4ccc(S(=O)(=O)[O-])cc4)cc3S(=O)(=O)[O-])c(S(=O)(=O)[O-])cc2c1)Nc1ccc2c(O)c(N=Nc3ccc(N=Nc4ccc(S(=O)(=O)[O-])cc4)cc3S(=O)(=O)[O-])c(S(=O)(=O)[O-])cc2c1.[Na+].[Na+].[Na+].[Na+].[Na+].[Na+] [Compound 132, Direct Red 80 (Saturn Rot F3B)]	3.80
CCOc1cc(NC(=O)c2ccccc2)c(OCC)cc1[N+]#N.[Cl-] [Compound 136, Fast Blue BB Salt]	4.17
COc1cc(NC(=O)c2ccccc2)c(OC)cc1[N+]#N [Compound 135, Fast Blue RR Salt]	4.09
CN(C)c1ccc(N=Nc2ccc(S(=O)(=O)[O-])cc2)cc1.[Na+] [Compound 14, Methyl Orange (Orange III)]	3.74
Direct Black 32 [Compound 77]	3.89
Cl.Cl.Nc1ccc(N=Nc2cccc(N=Nc3ccc(N)cc3N)c2)c(N)c1 [Compound 60, Bismark Brown Y (Vesuvin)]	3.87
O=S(=O)([O-])c1ccc(N=Nc2c(O)ccc3ccccc23)c2ccccc12.[Na+] [Compound 56, Acid Red 88 (Fast Red AV)]	3.31
Oc1ccc2ccccc2c1N=Nc1ccc(N=Nc2ccccc2)cc1 [Compound 65, Solvent Red 23 (Sudan III, Sudan V)]	3.64
CC(=O)Nc1cc(S(=O)(=O)[O-])cc2cc(S(=O)(=O)[O-])c(N=Nc3ccccc3C)c(O)c12.[Na+].[Na+] [Compound 43, Acid Red 35]	3.63
O=S(=O)([O-])c1cc(O)c2c(O)c(N=Nc3ccccc3)c(S(=O)(=O)[O-])cc2c1.[Na+].[Na+] [Compound 41, Acid Red 29 (Chromotrope 2R)]	3.65
O=S(=O)([O-])c1ccc2c(N=Nc3ccccc3[As](=O)(O)O)c(O)c(S(=O)(=O)[O-])cc2c1.[Na+].[Na+] [Compound 40, Thorin]	3.46

Same assay, conditions: even at a concentration of 0.11 mol/L

Molecule	toxicity
O=C([O-])C1=NN(c2ccc(S(=O)(=O)[O-])cc2)C(=O)C1N=Nc1ccc(S(=O)(=O)[O-])cc1.[Na+].[Na+].[Na+] (stereo not shown) [Compound 55, Acid Yellow 23 (Tartrazine, Food Yellow 4)]	not toxic at all

Same assay, conditions: in vivo

Molecule	F(1), F(2),... individual log(1/MRC50) toxicity value
Nc1ccc([N+](=O)[O-])cc1 [p-NA, p-nitroaniline]	2.85
COc1ccc(N)cc1 [p-Methoxy-aniline]	3.32

Same assay, conditions: parent dye, Table 2

Molecule	F(1+2+...)e experimental toxicity log(1/MRC50)
CN(C)c1ccc(N=Nc2ccc(S(=O)(=O)[O-])cc2)cc1.[Na+] [Compound 14, Methyl Orange (Orange III)]	3.74

Same assay, conditions: product of enzymatic reduction/hydrolysis of the dye

Molecule	F(1), F(2),... individual log(1/MRC50) toxicity value
Nc1ccc(/C=C/c2ccc(N)cc2S(=O)(=O)O)c(S(=O)(=O)O)c1 [ADASDS, diaminostilbene disulfonic acid]	3.43

Same assay, conditions: same column as M

Molecule	M: experimental toxicity (class word)
O=C([O-])C1=NN(c2ccc(S(=O)(=O)[O-])cc2)C(=O)C1N=Nc1ccc(S(=O)(=O)[O-])cc1.[Na+].[Na+].[Na+] (stereo not shown) [Compound 55, Acid Yellow 23 (Tartrazine, Food Yellow 4)]	NOTE
